Measured values reported in patent publication US10640802B2 (priority 2012, dated 2020).
“Also recorded” adds a separate entry of the source. Where two headings read alike, the source gives them in different places.

Legend:
[1] = system: E. coli AW3110 biosensor cells
[2] = biological target: Acidithiobacillus ferrooxidans AfArsR repressor, wild type (Acidithiobacillus ferrooxidans, UniProt B7J952); assay type: biochemical; details: pH 7.5
[3] = biological target: T1, Acidithiobacillus ferrooxidans AfArsR variant C102S (Cys102 to serine) (Acidithiobacillus ferrooxidans, UniProt B7J952, C102S); assay type: biochemical
T1 sequence (B7J952 1-118 C102S): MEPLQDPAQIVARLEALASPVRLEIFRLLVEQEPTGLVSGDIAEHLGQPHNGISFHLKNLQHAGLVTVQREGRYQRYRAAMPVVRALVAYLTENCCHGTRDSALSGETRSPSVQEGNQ

[4] = biological target: T1, Acidithiobacillus ferrooxidans AfArsR variant C102S (Cys102 to serine); details: previously observed; cited from earlier work
[5] = system: Acidithiobacillus ferrooxidans AfArsR, wild type (pBADarsR / pACYC184-parsO-gfp biosensor in E. coli AW3110); assay type: cell-based
[6] = system: Acidithiobacillus ferrooxidans AfArsR variant C102S (Cys102 eliminated by mutation; pBADarsR / parsO-gfp biosensor in E. coli AW3110); assay type: cell-based
[7] = system: C102S biosensor co-cultured with Burkholderia sp. MR1; assay type: cell-based, E. coli / Burkholderia sp. MR1
[8] = system: C102S mutant biosensor (E. coli strain AW3110); assay type: cell-based
[9] = system: AfarsR-gfp biosensor (E. coli strain AW3110 bearing pBADarsR and pACYC184-parsO-gfp); assay type: cell-based
wild type AfArsR = assay type: binding, Acidithiobacillus ferrooxidans
AfArsR C102S mutant = assay type: binding, Acidithiobacillus ferrooxidans
[10] = read-out: apparent half maximal concentration required for induction

Acidithiobacillus ferrooxidans AfArsR repressor, wild type, sequence (B7J952 1-118): as the sequence (B7J952 1-118 C102S) above, with S102C counted along it

O[As](O)O [As(III), arsenite]
decrease in cellular fluorescence and growth [1]: ≥ 40 pM
EC50 ([2]; read-out: concentration required to decrease anisotropy of AfArsR-DNA complex (half-maximal)): ~10 µM
EC50 ([2]; read-out: half-maximal concentration decreasing anisotropy of AfArsR-DNA complex): ~10 µM
binding / recognition by C102S [3]: lack of binding; also recorded: no longer recognizes; also recorded: lost its binding ability
response (anisotropy) [3]: little response
reduction of affinity by substitution of Cys102 with serine [4]: nearly an order of magnitude
concentrations sensed by the original biosensor [5]: micromolar concentrations
induction / derepression of gfp expression [5]: derepressed gfp expression; also recorded: dissociated AfArsR from pars, derepressing gfp expression; also recorded: induced gfp expression
linear response around concentration [5]: ~10 ppb
response of the biosensor [5]: practically no response
induction / derepression of gfp expression [6]: not responsive; also recorded: did not respond
response to As(III) [6]: no response

C[As](O)O [MAs(III), methylarsenite]
toxic at concentrations in excess of [1]: > 10^−5 M
binding / recognition by C102S [3]: still senses; also recorded: same binding affinity
response (anisotropy), concentration range [3]: sub-micromolar range
response to MAs(III), Rox(III) and PhAs(III) relative to wild type [3]: slightly higher than the wild type
induction / derepression of gfp expression [5]: proportional to the concentration of the inducer; also recorded: induced gfp expression
EC50 [5, 10]: ~3 µM
induction / derepression of gfp expression [6]: proportional to the concentration of the inducer; also recorded: high levels of fluorescence
EC50 ([6]; read-out: apparent half maximal concentration for induction): ~3 µM

O=[As](O)(O)c1ccccc1 [PAA, phenylarsonic acid]
response of biosensor co-cultured with Burkholderia [7]: didn't respond

O=[N+]([O-])c1cc([As](=O)(O)O)ccc1O [Rox(V), 3-nitro-4-hydroxybenzenearsonic acid]
response of biosensor co-cultured with Burkholderia [7]: didn't respond; also recorded: didn't show fluorescent
biosensor response (gfp derepression) [8]: unresponsive
biosensor response (gfp derepression) [9]: unresponsive

Sb(III) [listing 1 of 2 here]
induction of gfp expression [9]: induced gfp expression

Sb(III) [listing 2 of 2 here]
induction / derepression of gfp expression [5]: induced gfp expression

arsenate [As(V)]
effect on anisotropy of the AfArsR-DNA complex (wild type AfArsR): no effect

arsenite [As(III)]
binding by purified AfArsR C102S mutant (AfArsR C102S mutant): lost its binding ability
response of C102S AfArsR (anisotropy) (AfArsR C102S mutant): little response
biosensor response (gfp derepression) [8]: did not respond
response of Cys102-lacking biosensor [8]: no response
response of mutant biosensor [8]: no response
response to addition of arsenite [8]: not responsive
biosensor response [9]: practically no response
biosensor response (gfp derepression) [9]: induced
concentration around which the response is linear [9]: ~10 ppb
gfp expression upon addition of arsenite [9]: derepressed gfp expression; also recorded: derepressing gfp expression
induction of gfp expression [9]: induced gfp expression
EC50 [9, 10]: ~10 µM
EC50 (wild type AfArsR; read-out: half-maximal concentration for decrease of anisotropy): ~10 µM
